Data reported in patent publication US20240365783A1, “HERBICIDAL MALONAMIDES” (BASF SE, priority 2021, published 2024).

Experiments:
Assay type in all cases: in vivo
[1] = tested on: Abutilon theophrasti (ABUTH); experiment: greenhouse pre-emergence herbicidal test, ABUTH; conditions: pre-emergence method, scale from 0 to 100
Description: (§1) The culture containers used were plastic flowerpots containing loamy sand with approximately 3.0% of humus as the substrate. The seeds of the test plants were sown separately for each species.
(§2) For the pre-emergence treatment, the active ingredients, which had been suspended or emulsified in water, were applied directly after sowing by means of finely distributing nozzles. The containers were irrigated gently to promote germination and growth and subsequently covered with transparent plastic hoods until the test plants had rooted. This cover caused uniform germination of the test plants, unless this had been impaired by the active ingredients.
(§3) Depending on the species, the test plants were kept at 10-25° C. or 20-35° C., respectively.
(§4) The test period extended over 2 to 4 weeks. During this time, the test plants were tended, and their response to the individual treatments was evaluated.
(§5) Evaluation was carried out using a scale from 0 to 100. 100 means no emergence of the test plants, or complete destruction of at least the aerial moieties, and 0 means no damage, or normal course of growth. A good herbicidal activity is given at values of 70 to <90 and a very good herbicidal activity is given at values of 90 to 100.
(§6) The test plants used in the greenhouse experiments were of the following species: […]

[2] = tested on: Avena fatua (AVEFA); experiment: greenhouse post-emergence herbicidal test, AVEFA; conditions: post-emergence method, application rate 0.500 kg/ha, scale from 0 to 100
Description: as §1
(§7) For the post-emergence treatment, the test plants were first grown to a height of 3 to 15 cm, depending on the plant habit, and only then treated with the active ingredients which had been suspended or emulsified in water. For this purpose, the test plants were either sown directly and grown in the same containers, or they were first grown separately as seedlings and transplanted into the test containers a few days prior to treatment.
as §3, §4, §5, §6

[3] = tested on: Alopercurus myosuroides (ALOMY); experiment: greenhouse post-emergence herbicidal test, ALOMY; conditions: post-emergence method, application rate 0.500 kg/ha, scale from 0 to 100
Description: as §1, §7, §3, §4, §5, §6

[4] = tested on: Apera spica-venti (APESV); experiment: greenhouse pre-emergence herbicidal test, APESV; conditions: pre-emergence method, application rate 0.500 kg/ha, scale from 0 to 100
Description: as §1, §2, §3, §4, §5, §6

[5] = tested on: Setaria viridis (SETVI); experiment: greenhouse post-emergence herbicidal test, SETVI; conditions: post-emergence method, application rate 0.500 kg/ha, scale from 0 to 100
Description: as §1, §7, §3, §4, §5, §6

[6] = tested on: Abutilon theophrasti (ABUTH); experiment: greenhouse post-emergence herbicidal test, ABUTH; conditions: post-emergence method, application rate 0.250 kg/ha, scale from 0 to 100
Description: as §1, §7, §3, §4, §5, §6

[7] = tested on: Lolium multiflorum (LOLMU); experiment: greenhouse pre-emergence herbicidal test, LOLMU; conditions: pre-emergence method, application rate 0.250 kg/ha, scale from 0 to 100
Description: as §1, §2, §3, §4, §5, §6

[8] = tested on: Digitaria sanguinalis (DIGSA); experiment: greenhouse pre-emergence herbicidal test, DIGSA; conditions: pre-emergence method, application rate 0.250 kg/ha, scale from 0 to 100
Description: as §1, §2, §3, §4, §5, §6

In the case of CCc1cccc(NC(=O)C(C)(C)C(=O)NC(C)CCC(=O)OC)c1 (stereo not drawn) [Compound 1.19], the “herbicidal activity against ABUTH” value ([1]; application rate 0.250 kg/ha) is reported as “good (A good herbicidal activity is given at values of 70 to <90)”.

With COC(=O)CC(C)NC(=O)C(C)(C)C(=O)Nc1cc(Cl)cc(Cl)c1 (stereo not drawn) [Compound 1.1] the “herbicidal activity against AVEFA” value [2] was “very good (a very good herbicidal activity is given at values of 90 to 100)”, the “herbicidal activity against ABUTH” value ([1]; application rate 0.500 kg/ha) was “good (A good herbicidal activity is given at values of 70 to <90)” and the “herbicidal activity against ALOMY” value [3] was “very good (a very good herbicidal activity is given at values of 90 to 100)”. The “herbicidal activity against APESV” value [4] was “very good (a very good herbicidal activity is given at values of 90 to 100)” and the “herbicidal activity against SETVI” value [5] was “very good (a very good herbicidal activity is given at values of 90 to 100)”.

In the case of COC(=O)C1C=CC(NC(=O)C(C)(C)C(=O)Nc2cccc(I)c2)C1 (stereo not drawn) [Compound 1.4], the “herbicidal activity against ABUTH” value [6] is reported as “good (A good herbicidal activity is given at values of 70 to <90)”.

With CC(C)(C(=O)Nc1cc(Cl)cc(Cl)c1)C(=O)N[C@H]1C=C[C@@H](C(=O)O)C1 (relative stereo) [Compound 1.80] the “herbicidal activity against LOLMU” value [7] was “good (A good herbicidal activity is given at values of 70 to <90)”.

With CC(C)(C(=O)Nc1cccc(OC(F)(F)F)c1)C(=O)N[C@H]1C=C[C@@H](C(=O)O)C1 (relative stereo) [Compound 1.79] the “herbicidal activity against DIGSA” value [8] was “good (A good herbicidal activity is given at values of 70 to <90)”.
